≈ marks a conversion by molar mass, not a printed value. Like-named read-outs stand apart in the source and are kept apart here. Where a SMILES comes first, the peptide text is derived from it. [ ]: non-standard residue; d: D form. Nleu = CC(C)CNCC(=O)O; Nlys = NCCCCNCC(=O)O
Tests used:
[1] = system: S. maltophilia; details: pH 7.4
Procedure, shortened: (§1)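 Using MTT as a visual viability dye, MICs were scored as the lowest concentration with no visible growth. Prior to staining, ~5 × 10^5 CFU per well grew in MH medium for ca. 18 h at 37 °C under static conditions.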

[2] = system: B. cenocepacia; details: pH 7.4
Procedure, shortened: as §1

[3] = system: S. epidermis; details: pH 7.4
Procedure, shortened: as §1

[4] = system: S. aureus Newman; details: Newman
Procedure, shortened: as §1

[5] = system: P. aeruginosa PA14
Procedure, shortened: as §1

[6] = system: E. coli W3110
Procedure, shortened: as §1

[7] = system: PA14 2P4 (pmrB)
Procedure, shortened: as §1

[8] = system: PA14 4.13 (phoQ)
Procedure, shortened: as §1

[9] = system: S. aureus COL (MRSA)
Procedure, shortened: as §1

[10] = system: ZEM9A (clinical MDR P. aeruginosa isolate)
Procedure, shortened: as §1

[11] = system: E. cloacae; details: pH 7.4
Procedure, shortened: as §1

[12] = system: K. pneumoniae OXA-48
Procedure, shortened: as §1

[13] = system: ZEM-1A (clinical MDR P. aeruginosa isolate)
Procedure, shortened: as §1

[14] = system: PA14 4.18 (pmrB)
Procedure, shortened: as §1

[15] = system: human red blood cells (hRBC); experiment: Minimum hemolytic concentration (MHC); type: cell-based
Source text: We also measured minimal hemolysis concentrations (MHC) on human red blood cells by serial 2-fold dilution as an indication of toxicity against eukaryotic cells (Table 1).

[16] = system: HEK293 cells; experiment: Cell viability assay by Alamar blue; details: read-out: Toxicity on HEK293 cells; CSV
Method: The data are represented as the mean value ± SD, n = 3. […] (c) Vesicle leakage assay for a selection of compounds. Lipid vesicles made of EYPG or EYPC were suspended in a buffer (10 mM TRIS, 107 mM NaCl, pH 7.4). After 45 s, the indicated compound was added to reach the desired concentration. After 240 s, 30 μL of 1.2% TritonX-100 was added for full fluorescein release. […] See Supporting Information for the full curves, all of the data, and procedures.
HEK293 cells were cultured and maintained in DMEM high glucose (Dulbecco’s modified Eagle medium, Sigma Aldrich) medium supplemented with 10% FBS (Sigma Aldrich) and 1% penicillin/streptomycin. A549 cells were cultured and maintained in RPMI-1640 medium (Sigma Aldrich), supplemented with 10% FBS (Sigma Aldrich) and 1% penicillin/streptomycin. The cells were handled and subcultured according to the manufacturer instructions. Cells were incubated in a humidified incubator at 37 °C in the presence of 5% CO2.
Assays on HEK293, A549 cells were performed as described earlier.[74] […]

CC(C)C[C@H](NC(=O)[C@H](CCCCN)NC(=O)CNCCCCN)C(=O)N[C@@H](CC(C)C)C(=O)N[C@@H](CCCCN)C(=O)N[C@@H](CC(C)C)C(=O)N[C@@H](CC(C)C)C(=O)N[C@@H](CCCCN)C(=O)N[C@@H](CC(C)C)C(=O)N[C@@H](CC(C)C)C(=O)N(CC(N)=O)CC(C)C [EB1] (H-[Nlys]KLLKLLKLL[Nleu]-NH2; N-terminus assumed) was tested, and the “MIC S. maltophilia, full MH at pH 7.4” value ([1]; 4 h) was 3 ug/mL, the “MIC S. maltophilia” value [1] was 2 to 4 µg/mL and the “MIC B. cenocepacia, full MH at pH 7.4” value ([2]; 4 h) was over 32 ug/mL. For the same compound, the “MIC B. cenocepacia” value [2] was over 32 µg/mL, the “MIC S. epidermis, full MH at pH 7.4” value ([3]; 4 h) was 6 ug/mL and the “MIC S. epidermis” value [3] was 4 to 8 µg/mL. For the same compound, the “MIC S. aureus Newman, full MH at pH 7.4” value ([4]; 4 h, pH 7.4) was 32 ug/mL, the “MIC S. aureus Newman” value ([4]; 4 h, pH 8.5) was 2 µg/mL (≈ 1.51 µM) and the “MIC S. aureus Newman” value ([4]; pH 7.4) was 32 µg/mL (≈ 24.2 µM). For the same compound, the “MIC P. aeruginosa PA14, full MH at pH 7.4” value ([5]; PA14, 4 h, pH 7.4) was 4 ug/mL, the “MIC P. aeruginosa PA14” value ([5]; PA14, pH 7.4) was 4 µg/mL (≈ 3.03 µM) and the “MIC P. aeruginosa PA14” value ([5]; PA14, pH 8.5) was 2 µg/mL (≈ 1.51 µM). For the same compound, the “MIC E. coli W3110, […] MH at pH 7.4” value ([6]; CSV, […] MH at pH 7.4) was 2 ug/mL, the “MIC E. coli W3110, full MH at pH 7.4” value ([6]; CSV, full MH at pH 7.4) was 2 ug/mL and the “MIC E. coli W3110 […] 7.4” value ([6]; Table S2, […] MH, pH 7.4) was 2 µg/mL (≈ 1.51 µM). The “MIC E. coli W3110 […] 8.5” value ([6]; Table S2, […] MH, pH 8.5) was 1 µg/mL (≈ 0.757 µM), the “MIC E. coli W3110 Full MH 7.4” value ([6]; Table S2, full MH, pH 7.4) was 2 µg/mL (≈ 1.51 µM) and the “MIC E. coli W3110 Full MH 8.5” value ([6]; Table S2, full MH, pH 8.5) was 32 µg/mL (≈ 24.2 µM). For the same compound, the “MIC E. coli W3110 […]” value ([6]; diluted MH ([…] MH, pH 8.5) per Table 1 footnote b, 16–20 h at 37 °C) was 2 µg/mL (≈ 1.51 µM), the “MIC P. aeruginosa PA14 2P4, […] MH at pH 8.5” value ([7]; CSV, […] MH at pH 8.5) was 2 ug/mL and the “MIC P. aeruginosa PA14 2P4, full MH at pH 7.4” value ([7]; CSV, full MH at pH 7.4) was 32 ug/mL. For the same compound, the “MIC PA14 2P4 (pmrB)” value ([7]; MH pH 7.4, 16–20 h at 37 °C) was 32 µg/mL (≈ 24.2 µM), the “MIC P. aeruginosa PA14 2P4” value ([7]; Table S3, […] MH at pH 8.5) was 2 µg/mL (≈ 1.51 µM) and the “MIC P. aeruginosa PA14 4.13, […] MH at pH 8.5” value ([8]; CSV, […] MH at pH 8.5) was 2 ug/mL. For the same compound, the “MIC P. aeruginosa PA14 4.13, full MH at pH 7.4” value ([8]; CSV, full MH at pH 7.4) was 8 ug/mL, the “MIC PA14 4.13 (phoQ)” value ([8]; MH pH 7.4, 16–20 h at 37 °C) was 8 µg/mL (≈ 6.05 µM) and the “MIC P. aeruginosa PA14 4.13” value ([8]; Table S3, […] MH at pH 8.5) was 2 µg/mL (≈ 1.51 µM). For the same compound, the “MIC S. aureus COL (MRSA) Full” value ([9]; COL, pH 7.4) was 8 µg/mL (≈ 6.05 µM), the “MIC S. aureus COL (MRSA) […] 7.4” value ([9]; Table S2, […] MH, pH 7.4) was 2 µg/mL (≈ 1.51 µM) and the “MIC S. aureus COL (MRSA) […] 8.5” value ([9]; Table S2, […] MH, pH 8.5) was 2 µg/mL (≈ 1.51 µM). For the same compound, the “MIC S. aureus COL (MRSA) Full MH 7.4” value ([9]; Table S2, full MH, pH 7.4) was 8/32, the “MIC S. aureus COL (MRSA) Full MH 8.5” value ([9]; Table S2, full MH, pH 8.5) was 32 µg/mL (≈ 24.2 µM) and the “MIC P. aeruginosa ZEM9A, full MH at pH 7.4” value ([10]; CSV, full MH at pH 7.4) was 16 ug/mL. For the same compound, the “MIC ZEM9A” value ([10]; MH pH 7.4, 16–20 h at 37 °C) was 16 µg/mL (≈ 12.1 µM), the “MIC E. cloacae, full MH at pH 7.4” value ([11]; 4 h) was 8 ug/mL and the “MIC E. cloacae” value [11] was 8 µg/mL (≈ 6.05 µM). For the same compound, the “MIC K. pneumoniae OXA-48, full MH at pH 7.4” value ([12]; CSV, full MH at pH 7.4) was 12 ug/mL, the “MIC K. pneumoniae OXA-48” value ([12]; MH pH 7.4, 16–20 h at 37 °C) was 8 to 16 µg/mL and the “MIC P. aeruginosa ZEM-1A, full MH at pH 7.4” value ([13]; CSV, full MH at pH 7.4) was 3 ug/mL. The “MIC ZEM-1A” value ([13]; MH pH 7.4, 16–20 h at 37 °C) was 2 to 4 µg/mL, the “MIC P. aeruginosa PA14 4.18, […] MH at pH 8.5” value ([14]; CSV, […] MH at pH 8.5) was 2 ug/mL and the “MIC P. aeruginosa PA14 4.18, full MH at pH 7.4” value ([14]; CSV, full MH at pH 7.4) was 32 ug/mL. The “MIC PA14 4.18 (pmrB)” value ([14]; MH pH 7.4, 16–20 h at 37 °C) was 32 µg/mL (≈ 24.2 µM), the “MIC P. aeruginosa PA14 4.18” value ([14]; Table S3, […] MH at pH 8.5) was 2 µg/mL (≈ 1.51 µM) and the MHC [15] was 1000 µg/mL. For the same compound, the “MHC (hemolysis)” value ([15]; red cells of human) was 250 to 1000 µg/mL and the IC50 [16] was 110 ± 6 µM.

Source: paper PMC10714400, “Antimicrobial Peptide–Peptoid Hybrids with and without Membrane Disruption” (ACS Infectious Diseases, 2023)
